Values quoted from earlier work as cited in US20080254073A1, “Transdermal Patch Comprising Paroxetine” (IKSU PARMACEUTICAL CO., LTD., priority 2005, published 2008).

Experiments:
[1] = not given; remark: listed apart in the source

Fc1ccc([C@@H]2CCNC[C@H]2COc2ccc3c(c2)OCO3)cc1 [Paroxetine]
partition coefficient of the drug using octanol-water: 169.20±17.19
log P (octanol-water): 2.23
elimination half-life ([1]; after multiple oral administration, healthy volunteers): about 24 hours
time to reach maximum plasma concentration of the drug ([1]; oral administration, healthy volunteers): about five
influence of food or antacid on absorption ([1]; oral, administered together with food or antacid): not influenced by food or antacid
difference in the area under the plasma concentration-time curve (AUC) ([1]; oral, differences among individuals): about 35 times
